Literature values as cited in publication PMC9516332 (Frontiers in Oncology, 2022).
Read-outs that look alike come from different tables or passages of the source.

What was measured:
Details in all cases: cited from earlier work
[1] = target: T1, panel of 255 wild-type kinases (Homo sapiens, UniProt P29323)
T1 sequence (P29323 19-1055): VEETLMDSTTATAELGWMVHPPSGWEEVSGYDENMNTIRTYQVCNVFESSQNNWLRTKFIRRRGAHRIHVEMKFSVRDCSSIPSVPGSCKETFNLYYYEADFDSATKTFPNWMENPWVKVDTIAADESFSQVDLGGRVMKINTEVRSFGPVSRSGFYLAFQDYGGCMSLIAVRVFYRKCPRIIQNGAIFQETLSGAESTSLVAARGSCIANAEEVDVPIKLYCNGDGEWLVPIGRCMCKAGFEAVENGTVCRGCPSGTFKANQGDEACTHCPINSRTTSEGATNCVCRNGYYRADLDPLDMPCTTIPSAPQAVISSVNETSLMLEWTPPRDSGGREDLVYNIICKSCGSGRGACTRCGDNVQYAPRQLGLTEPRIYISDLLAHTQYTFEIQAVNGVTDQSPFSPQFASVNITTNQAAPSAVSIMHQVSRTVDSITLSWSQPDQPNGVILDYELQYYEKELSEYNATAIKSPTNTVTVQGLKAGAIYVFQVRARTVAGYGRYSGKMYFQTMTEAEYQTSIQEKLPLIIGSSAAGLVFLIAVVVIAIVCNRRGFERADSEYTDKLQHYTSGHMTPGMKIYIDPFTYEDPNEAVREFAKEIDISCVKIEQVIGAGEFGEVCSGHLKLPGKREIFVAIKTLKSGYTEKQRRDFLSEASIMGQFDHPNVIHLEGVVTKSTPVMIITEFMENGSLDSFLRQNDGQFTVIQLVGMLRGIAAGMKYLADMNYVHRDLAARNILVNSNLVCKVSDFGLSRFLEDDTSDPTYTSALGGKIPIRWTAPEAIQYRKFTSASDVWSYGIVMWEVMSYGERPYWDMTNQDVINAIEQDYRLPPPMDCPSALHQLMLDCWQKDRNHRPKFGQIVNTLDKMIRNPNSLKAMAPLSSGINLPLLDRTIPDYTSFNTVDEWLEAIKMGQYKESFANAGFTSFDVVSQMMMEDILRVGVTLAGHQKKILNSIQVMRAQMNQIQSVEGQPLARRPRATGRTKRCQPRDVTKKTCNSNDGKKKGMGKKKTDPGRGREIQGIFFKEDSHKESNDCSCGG

[2] = target: T2, panel of 255 wild-type kinases (Homo sapiens, UniProt Q8IWQ3)
T2 sequence (Q8IWQ3 1-736): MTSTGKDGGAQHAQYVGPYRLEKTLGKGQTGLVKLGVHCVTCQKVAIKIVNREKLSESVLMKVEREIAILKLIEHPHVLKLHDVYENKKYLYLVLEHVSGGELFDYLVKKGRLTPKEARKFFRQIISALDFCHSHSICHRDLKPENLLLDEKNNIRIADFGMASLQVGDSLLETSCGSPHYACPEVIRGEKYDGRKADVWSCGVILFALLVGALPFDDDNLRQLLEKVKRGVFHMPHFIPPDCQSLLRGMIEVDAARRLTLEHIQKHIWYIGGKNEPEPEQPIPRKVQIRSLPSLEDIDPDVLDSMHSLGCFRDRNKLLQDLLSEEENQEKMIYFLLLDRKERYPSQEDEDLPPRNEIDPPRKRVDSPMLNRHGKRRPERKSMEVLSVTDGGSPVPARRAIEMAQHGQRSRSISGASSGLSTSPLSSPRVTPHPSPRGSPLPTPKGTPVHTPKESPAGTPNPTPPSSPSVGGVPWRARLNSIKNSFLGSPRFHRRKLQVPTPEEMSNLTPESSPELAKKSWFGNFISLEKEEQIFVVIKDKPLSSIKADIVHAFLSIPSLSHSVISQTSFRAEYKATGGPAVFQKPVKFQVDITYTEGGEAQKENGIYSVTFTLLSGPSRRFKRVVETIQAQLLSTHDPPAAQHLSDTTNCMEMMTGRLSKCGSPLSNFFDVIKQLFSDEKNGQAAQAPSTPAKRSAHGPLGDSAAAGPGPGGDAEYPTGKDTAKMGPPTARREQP

[3] = target: panel of 255 wild-type kinases (Homo sapiens, UniProt Q15119)
[4] = target: panel of 255 wild-type kinases (Homo sapiens, UniProt Q13164)
[5] = target: panel of 255 wild-type kinases (Homo sapiens, UniProt O96017)
[6] = kinase EPHB2, 1 µmol/L single concentration, ref DOI: 10.1158/1535-7163.MCT-18-0877
[7] = BRSK2 kinase assay, 1 µmol/L single concentration, ref DOI: 10.1158/1535-7163.MCT-18-0877
[8] = kinase PDHK2, 1 µmol/L single concentration, ref DOI: 10.1158/1535-7163.MCT-18-0877
[9] = kinase Erk5, 1 µmol/L single concentration, ref DOI: 10.1158/1535-7163.MCT-18-0877
[10] = CHK2 kinase assay, 1 µmol/L single concentration, ref DOI: 10.1158/1535-7163.MCT-18-0877
[11] = kinase EPHB2, 1 µmol/L single concentration, ref DOI: 10.1371/journal.pone.0092146
[12] = BRSK2 kinase assay, 1 µmol/L single concentration, ref DOI: 10.1371/journal.pone.0092146
[13] = kinase PDHK2, 1 µmol/L single concentration, ref DOI: 10.1371/journal.pone.0092146
[14] = kinase Erk5, 1 µmol/L single concentration, ref DOI: 10.1371/journal.pone.0092146
[15] = CHK2 kinase assay, 1 µmol/L single concentration, ref DOI: 10.1371/journal.pone.0092146

Structure (SMILES) | %-inhibition at 1 µmol/L, EPHB2 [1, 6] [%] | %-inhibition BRSK2 [2, 7] [%] | %-inhibition at 1 µmol/L, PDHK2 [3, 8] [%] | %-inhibition at 1 µmol/L, Erk5 [4, 9] [%] | %-inhibition CHK2 [5, 10] [%] | %-inhibition at 1 µmol/L, EPHB2 [1, 11] [%] | %-inhibition BRSK2 [2, 12] [%] | %-inhibition at 1 µmol/L, PDHK2 [3, 13] [%] | %-inhibition at 1 µmol/L, Erk5 [4, 14] [%] | %-inhibition CHK2 [5, 15] [%] | further results
CC#CC(=O)N1CCC[C@H]1c1nc(-c2ccc(C(=O)Nc3ccccn3)cc2)c2c(N)nccn12 [acalabrutinib] | -0.111 | -10 | 0.164 | -2.12 | -6 |  |  |  |  |  | 
CCc1cc2c(cc1N1CCC(N3CCOCC3)CC1)C(C)(C)c1[nH]c3cc(C#N)ccc3c1C2=O [alectinib] | 27 | -2.35 | 0.393 | -1.24 | 96 |  |  |  |  |  | 
COc1cc(N2CCC(N3CCN(C)CC3)CC2)ccc1Nc1ncc(Cl)c(Nc2ccccc2P(C)(C)=O)n1 [brigatinib] |  |  |  |  |  |  |  |  |  |  | %-inhibition at 1 µmol/L, EPHB2 [1]: 10%; %-inhibition BRSK2 [2]: 77%; %-inhibition at 1 µmol/L, PDHK2 [3]: 2%; %-inhibition at 1 µmol/L, Erk5 [4]: 96%; %-inhibition CHK2 [5]: 96%
Cc1cc(Nc2ncc(Cl)c(Nc3ccccc3S(=O)(=O)C(C)C)n2)c(OC(C)C)cc1C1CCNCC1 [ceritinib] | 15 | 24 | -1.41 | 94 | 88 |  |  |  |  |  | 
O=C(c1ccc(F)c(F)c1Nc1ccc(I)cc1F)N1CC(O)([C@@H]2CCCCN2)C1 [cobimetinib] | 1.53 | 3 | -0.379 | 1.71 | -0.103 |  |  |  |  |  | 
C[C@@H](Oc1cc(-c2cnn(C3CCNCC3)c2)cnc1N)c1c(Cl)ccc(F)c1Cl [crizotinib] |  |  |  |  |  | 57 | 8 | -3.51 | 45 | 9 | 
CC(C)(C)c1nc(-c2cccc(NS(=O)(=O)c3c(F)cccc3F)c2F)c(-c2ccnc(N)n2)s1 [dabrafenib] |  |  |  |  |  | -3.38 | 30 | 0.108 | 0.144 | 7 | 
C=CC(=O)N1CCC[C@@H](n2nc(-c3ccc(Oc4ccccc4)cc3)c3c(N)ncnc32)C1 [ibrutinib] | 28 | 16 | -1.08 | 4 | 14 |  |  |  |  |  | 
CO[C@@H]1[C@H](N(C)C(=O)c2ccccc2)C[C@H]2O[C@]1(C)n1c3ccccc3c3c4c(c5c6ccccc6n2c5c31)C(=O)NC4 [midostaurin] | 4.5 | 90 | -1.18 | -1.27 | 36 |  |  |  |  |  | 
C=CC(=O)Nc1cc(Nc2nccc(-c3cn(C)c4ccccc34)n2)c(OC)cc1N(C)CCN(C)C [osimertinib] | 2.8 | -0.439 | -2 | 10 | 6 |  |  |  |  |  | 
CC(=O)Nc1cccc(-n2c(=O)n(C3CC3)c(=O)c3c(Nc4ccc(I)cc4F)n(C)c(=O)c(C)c32)c1 [trametinib] |  |  |  |  |  | -8 | 5.38 | -0.542 | -2.55 | -5 | 
CCCS(=O)(=O)Nc1ccc(F)c(C(=O)c2c[nH]c3ncc(-c4ccc(Cl)cc4)cc23)c1F [vemurafenib] |  |  |  |  |  | -2.11 | -6 | 3.73 | 0.709 | 6.32 | 
